{"source": "patent US9035074B2", "about": "“Pyrrolo[2,3-D]pyrimidine derivatives” (Pfizer Inc., priority 2013, dated 2015)", "data": [{"biological_target": "JAK3 (Homo sapiens (Human), UniProt P52333)", "sequence (P52333 whole entry, species assumed)": "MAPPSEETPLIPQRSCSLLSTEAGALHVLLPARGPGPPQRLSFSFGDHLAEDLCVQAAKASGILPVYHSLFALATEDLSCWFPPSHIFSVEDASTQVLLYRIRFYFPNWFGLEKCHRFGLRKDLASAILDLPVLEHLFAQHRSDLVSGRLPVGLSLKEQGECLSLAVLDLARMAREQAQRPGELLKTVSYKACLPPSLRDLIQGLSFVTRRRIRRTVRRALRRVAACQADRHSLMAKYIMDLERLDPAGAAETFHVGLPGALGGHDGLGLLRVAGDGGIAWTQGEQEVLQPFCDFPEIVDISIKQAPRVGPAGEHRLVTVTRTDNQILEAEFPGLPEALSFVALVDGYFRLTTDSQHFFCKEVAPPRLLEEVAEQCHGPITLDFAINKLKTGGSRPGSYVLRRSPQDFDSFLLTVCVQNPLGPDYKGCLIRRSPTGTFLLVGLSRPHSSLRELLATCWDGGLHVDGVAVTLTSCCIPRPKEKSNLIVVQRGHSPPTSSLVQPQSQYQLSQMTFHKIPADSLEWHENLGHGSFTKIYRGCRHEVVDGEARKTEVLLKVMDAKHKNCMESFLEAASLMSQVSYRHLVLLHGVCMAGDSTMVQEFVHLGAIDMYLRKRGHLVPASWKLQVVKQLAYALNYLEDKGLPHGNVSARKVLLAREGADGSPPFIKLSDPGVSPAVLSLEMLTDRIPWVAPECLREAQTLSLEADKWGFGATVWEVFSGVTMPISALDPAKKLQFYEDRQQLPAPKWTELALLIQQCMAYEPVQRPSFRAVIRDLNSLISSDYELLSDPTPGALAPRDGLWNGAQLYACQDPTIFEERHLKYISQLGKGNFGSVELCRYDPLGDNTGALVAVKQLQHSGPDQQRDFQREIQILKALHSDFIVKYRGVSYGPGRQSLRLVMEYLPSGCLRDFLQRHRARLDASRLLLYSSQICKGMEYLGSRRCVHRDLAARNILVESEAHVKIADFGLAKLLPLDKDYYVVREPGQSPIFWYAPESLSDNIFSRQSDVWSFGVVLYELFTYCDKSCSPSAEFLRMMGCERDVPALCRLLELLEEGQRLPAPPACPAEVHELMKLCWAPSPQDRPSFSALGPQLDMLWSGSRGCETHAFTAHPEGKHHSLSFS", "test": "JAK Caliper Enzyme Assay at 1 mM ATP (JAK3)", "format": "biochemical", "units": {"IC50": "µM"}, "values": [{"smiles": "CN(c1ncnc2[nH]ccc12)[C@H]1C[C@@H](NS(=O)(=O)N2CC[C@@H](C#N)C2)C1", "note": "(mixture of isomers) [Example 17A, (R)- and (S)-3-Cyano-N-{cis-3-[methyl(7H-pyrrolo[2,3-d]pyrimidin-4-yl)amino]cyclobutyl}pyrrolidine-1-sulfonamide]", "IC50": "> 10"}, {"smiles": "CN(c1ncnc2[nH]ccc12)[C@H]1C[C@@H](NS(=O)(=O)[C@H]2C[C@@H](CC#N)C2)C1", "note": "[Example 4A, cis-3-(cyanomethyl)-N-{cis-3-[methyl(7H-pyrrolo[2,3-d]pyrimidin-4-yl)amino]-cyclobutyl}cyclobutane-sulfonamide]", "IC50": "> 10"}, {"smiles": "CN(c1ncnc2[nH]ccc12)[C@H]1C[C@@H](NS(=O)(=O)[C@H]2C[C@H](CC#N)C2)C1", "note": "[Example 4B, trans-3-(cyanomethyl)-N-{cis-3-[methyl(7H-pyrrolo[2,3-d]pyrimidin-4-yl)amino]cyclobutyl}-cyclobutanesulfonamide]", "IC50": "> 10"}, {"smiles": "CN(c1ncnc2[nH]ccc12)[C@H]1C[C@@H](NS(=O)(=O)[C@H]2C[C@@](C)(CC#N)C2)C1", "note": "[Example 7A, cis-3-(cyanomethyl)-3-methyl-N-{cis-3-[methyl(7H-pyrrolo[2,3-d]pyrimidin-4-yl)amino]cyclobutyl}-cyclo-butanesulfonamide]", "IC50": "> 10"}, {"smiles": "CN(c1ncnc2[nH]ccc12)[C@H]1C[C@@H](NS(=O)(=O)[C@H]2C[C@](C)(CC#N)C2)C1", "note": "[Example 7B, trans-3-(cyanomethyl)-3-methyl-N-{cis-3-[methyl(7H-pyrrolo[2,3-d]pyrimidin-4-yl)amino]cyclobutyl}cyclo-butanesulfonamide]", "IC50": "> 10"}, {"smiles": "CN(c1ncnc2[nH]ccc12)[C@H]1C[C@@H](NS(=O)(=O)C2CN(C3CC3)C2)C1", "note": "[Example 15, 1-Cyclopropyl-N-{cis-3-[methyl(7H-pyrrolo[2,3-d]pyrimidin-4-yl)amino]cyclobutyl}azetidine-3-sulfonamide]", "IC50": "> 10"}, {"smiles": "CN(c1ncnc2[nH]ccc12)[C@H]1C[C@@H](NS(=O)(=O)N2C[C@H]3C[C@@H](C2)O3)C1", "note": "[Example 19, N-{cis-3-[Methyl(7H-pyrrolo[2,3-d]pyrimidin-4-yl)amino]cyclobutyl}-6-oxa-3-azabicyclo[3.1.1]heptane-3-sulfonamide]", "IC50": "> 10"}, {"smiles": "CN(c1ncnc2[nH]ccc12)[C@H]1C[C@@H](CS(=O)(=O)N2CCC(F)(F)CC2)C1", "note": "[Example 25, N-(cis-3-{[(4,4-Difluoropiperidin-1-yl)sulfonyl]methyl}cyclobutyl)-N-methyl-7H-pyrrolo[2,3-d]pyrimidin-4-amine]", "IC50": "> 10"}, {"smiles": "CN(c1ncnc2[nH]ccc12)[C@H]1C[C@@H](CS(=O)(=O)CCC2CC2)C1", "note": "[Example 32, N-(cis-3-{[(2-Cyclopropylethyl)sulfonyl]methyl}cyclobutyl)-N-methyl-7H-pyrrolo[2,3-d]pyrimidin-4-amine]", "IC50": "> 10"}, {"smiles": "Cc1ncc(S(=O)(=O)N[C@H]2C[C@@H](N(C)c3ncnc4[nH]ccc34)C2)s1", "note": "[Example 38, 2-Methyl-N-{cis-3-[methyl(7H-pyrrolo[2,3-d]pyrimidin-4-yl)amino]cyclobutyl}-1,3-thiazole-5-sulfonamide]", "IC50": "> 10"}]}]}
